Source: the NIST ThermoML archive (doi:10.1016/j.jct.2016.12.029)
Numbers after ± are expanded uncertainties.

Assay: xn = mol fraction of the nth substance listed
Conditions: Gas, Buoyancy - hydrostatic balance with magnetic suspension - one sinker

C=C(F)C(F)(F)F [2,3,3,3-tetrafluoro-1-propene] + CCC
Conditions	mass density [kg/m3]
265.46 K, 101.2 kPa, x1 = 1	5.404 ± 0.069
265.48 K, 207.2 kPa, x1 = 1	11.507 ± 0.069
265.55 K, 106.5 kPa, x1 = 0.8116	5.018 ± 0.062
265.56 K, 107.5 kPa, x1 = 0.583	4.254 ± 0.051
265.57 K, 104 kPa, x1 = 0.0906	2.433 ± 0.03
265.57 K, 181.7 kPa, x1 = 0.8116	8.775 ± 0.066
265.57 K, 198.3 kPa, x1 = 0.583	8.052 ± 0.056
265.57 K, 206.2 kPa, x1 = 0.0906	4.954 ± 0.033
265.58 K, 299.3 kPa, x1 = 0.0906	7.374 ± 0.037
265.59 K, 295.1 kPa, x1 = 0.583	12.343 ± 0.062
265.6 K, 249 kPa, x1 = 0.8116	12.31 ± 0.071
270.36 K, 101 kPa, x1 = 1	5.279 ± 0.066
270.38 K, 164.6 kPa, x1 = 1	8.792 ± 0.069
270.38 K, 250.3 kPa, x1 = 1	13.798 ± 0.07
270.4 K, 103.2 kPa, x1 = 0.2546	2.918 ± 0.036
270.41 K, 182.2 kPa, x1 = 0.2546	5.239 ± 0.039
270.42 K, 267 kPa, x1 = 0.2546	7.839 ± 0.042
270.44 K, 102.4 kPa, x1 = 0.0906	2.353 ± 0.03
270.44 K, 194.1 kPa, x1 = 0.0906	4.555 ± 0.033
270.44 K, 338.6 kPa, x1 = 0.0906	8.243 ± 0.038
270.45 K, 102.6 kPa, x1 = 0.583	3.972 ± 0.05
270.45 K, 215 kPa, x1 = 0.583	8.58 ± 0.056
270.47 K, 349 kPa, x1 = 0.583	14.488 ± 0.065
270.5 K, 105.1 kPa, x1 = 0.8116	4.852 ± 0.06
270.5 K, 182.6 kPa, x1 = 0.8116	8.631 ± 0.065
270.5 K, 286.6 kPa, x1 = 0.8116	14.015 ± 0.072
275.39 K, 106.2 kPa, x1 = 1	5.448 ± 0.066
275.4 K, 208.6 kPa, x1 = 1	11.064 ± 0.068
275.41 K, 188.7 kPa, x1 = 0.2546	5.334 ± 0.039
275.41 K, 306 kPa, x1 = 0.2546	8.898 ± 0.044
275.42 K, 303.7 kPa, x1 = 1	16.657 ± 0.071
275.43 K, 404.2 kPa, x1 = 0.2546	12.054 ± 0.052
275.45 K, 102.2 kPa, x1 = 0.583	3.894 ± 0.049
275.45 K, 198.4 kPa, x1 = 0.583	7.744 ± 0.054
275.46 K, 103.9 kPa, x1 = 0.0906	2.338 ± 0.029
275.46 K, 196 kPa, x1 = 0.0906	4.504 ± 0.031
275.46 K, 282.9 kPa, x1 = 0.0906	6.633 ± 0.035
275.47 K, 107.9 kPa, x1 = 0.8116	4.886 ± 0.059
275.47 K, 211 kPa, x1 = 0.8116	9.844 ± 0.065
275.47 K, 300.7 kPa, x1 = 0.583	12.066 ± 0.062
275.47 K, 374.9 kPa, x1 = 0.0906	8.996 ± 0.04
275.49 K, 325.2 kPa, x1 = 0.8116	15.724 ± 0.075
275.49 K, 415.1 kPa, x1 = 0.583	17.223 ± 0.071
280.28 K, 103.6 kPa, x1 = 1	5.208 ± 0.064
280.29 K, 176.6 kPa, x1 = 1	9.076 ± 0.066
280.29 K, 274 kPa, x1 = 1	14.527 ± 0.069
280.29 K, 356.2 kPa, x1 = 1	19.43 ± 0.072
280.31 K, 101.5 kPa, x1 = 0.2546	2.757 ± 0.035
280.31 K, 195.7 kPa, x1 = 0.2546	5.424 ± 0.038
280.31 K, 360.4 kPa, x1 = 0.2546	10.374 ± 0.047
280.31 K, 476.4 kPa, x1 = 0.2546	14.119 ± 0.054
280.32 K, 279.7 kPa, x1 = 0.2546	7.895 ± 0.042
280.33 K, 202 kPa, x1 = 0.583	7.713 ± 0.052
280.34 K, 102.8 kPa, x1 = 0.583	3.835 ± 0.048
280.34 K, 300.9 kPa, x1 = 0.583	11.781 ± 0.06
280.34 K, 401.2 kPa, x1 = 0.583	16.148 ± 0.069
280.35 K, 481.2 kPa, x1 = 0.583	19.822 ± 0.076
280.36 K, 103.6 kPa, x1 = 0.8116	4.599 ± 0.057
280.36 K, 106.5 kPa, x1 = 0.0906	2.352 ± 0.028
280.37 K, 190.7 kPa, x1 = 0.8116	8.666 ± 0.062
280.37 K, 207.3 kPa, x1 = 0.0906	4.678 ± 0.031
280.38 K, 294.7 kPa, x1 = 0.8116	13.792 ± 0.071
280.39 K, 315.2 kPa, x1 = 0.0906	7.287 ± 0.036
280.4 K, 369 kPa, x1 = 0.8116	17.665 ± 0.078
280.4 K, 425 kPa, x1 = 0.0906	10.088 ± 0.042
285.27 K, 258.8 kPa, x1 = 1	13.34 ± 0.067
285.28 K, 104.7 kPa, x1 = 1	5.162 ± 0.062
285.28 K, 164.2 kPa, x1 = 1	8.23 ± 0.064
285.28 K, 358.5 kPa, x1 = 1	19.078 ± 0.069
285.29 K, 306.8 kPa, x1 = 0.2546	8.517 ± 0.042
285.29 K, 414.7 kPa, x1 = 0.2546	11.796 ± 0.049
285.29 K, 520.3 kPa, x1 = 0.2546	15.183 ± 0.057
285.3 K, 104 kPa, x1 = 0.2546	2.771 ± 0.034
285.3 K, 204 kPa, x1 = 0.2546	5.541 ± 0.037
285.32 K, 104.6 kPa, x1 = 0.583	3.829 ± 0.047
285.32 K, 198.9 kPa, x1 = 0.583	7.432 ± 0.051
285.32 K, 309.1 kPa, x1 = 0.583	11.855 ± 0.059
285.32 K, 414.1 kPa, x1 = 0.583	16.308 ± 0.068
285.33 K, 524.2 kPa, x1 = 0.583	21.282 ± 0.078
285.35 K, 103.9 kPa, x1 = 0.0906	2.256 ± 0.028
285.35 K, 107.3 kPa, x1 = 0.8116	4.677 ± 0.056
285.35 K, 203.4 kPa, x1 = 0.8116	9.079 ± 0.062
285.36 K, 205.6 kPa, x1 = 0.0906	4.552 ± 0.03
285.37 K, 298.4 kPa, x1 = 0.0906	6.733 ± 0.034
